Source: article PMC9326219, “Design and Synthesis of 1-O- and 6′-C-Modified Heparan Sulfate Trisaccharides as Human Endo-6-O-Sulfatase 1 Inhibitors” (Frontiers in Chemistry, 2022)
pIC50, pKi: −log10 of the molar value.

How the values were obtained:
[1] = molecular target: T1, human endo-6-O-sulfatase 1 (Sulf-1) (Homo sapiens, UniProt Q8IWU6); assay: fluorescent 4-MUS hydrolysis assay with purified human Sulf-1; kinetic fit to competitive model (IC50 […]); assay type: biochemical
T1 construct: gene SULF1

[2] = molecular target: T1, human endo-6-O-sulfatase 1 (Sulf-1); assay: fluorescent 4-MUS hydrolysis assay with purified human Sulf-1; assay type: biochemical

Structure (SMILES)	pKi [1]	pIC50 [2]
CO[C@@H]1O[C@@H](C(=O)O)[C@@H](O[C@H]2O[C@H](COS(N)(=O)=O)[C@@H](O[C@@H]3O[C@@H](C(=O)O)[C@@H](O)[C@H](O)[C@H]3OS(=O)(=O)O)[C@H](O)[C@H]2NS(=O)(=O)O)[C@H](O)[C@H]1OS(=O)(=O)O [compound 5, IdoA2OS-GlcNS6OSO2NH2-IdoA2OS-OMe]	6.85	
CO[C@@H]1O[C@@H](C(=O)O)[C@@H](O[C@H]2O[C@H](CNS(=O)(=O)O)[C@@H](O[C@@H]3O[C@@H](C(=O)O)[C@@H](O)[C@H](O)[C@H]3OS(=O)(=O)O)[C@H](O)[C@H]2NS(=O)(=O)O)[C@H](O)[C@H]1OS(=O)(=O)O [compound 6, IdoA2OS-GlcNS6NS-IdoA2OS-OMe]		5.34
